Source: patent US20230096528A1, “Pharmaceutical Composition for Treatment or Prevention of Multiple Inflammatory disorders” (priority 2019, published 2023)

Key:
[1] = test system: mouse model of acute lung injury; test: Second modified acute lung injury plus hyperthermia study (Example 8); details: for Tolerability of three days of repeat dosing: mouse, in vivo
Procedure: Lung lavage fluid was measured and cytokine analysis. Statistics was one-way ANOVA followed by Tukey's multiple comparison post hoc test for data with normal distribution; Kruskal-Wallis test followed by Dunn's multiple comparison post hoc test for data with skewed distribution; and the ROUT method for identifying outliers. Control or drug administered for 3 days, then LPS at 50 μL of 1 mg/ml delivered intratracheally with a Penn Century needle where a core temperature of 39 C at 24 hours post LPS and then sacrifice to measure lung lavage fluid protein concentration and serum cytokine levels.
The same procedure was used as in Example 7. Starting three days before the induction of lung injury, groups of six CD-1 mice each were treated prophylactically with vehicle or 92.4 mg/kg denatonium acetate (DA) (administered by twice-daily (BID) oral gavage (PO)) or with 3 mg/kg DA (administered by once-daily (QD) intraperitoneal (IP) injection). On Day 0, lung injury was induced by intratracheal instillation with 50 μL of 1 mg/mL bacterial lipopolysaccharide (LPS), and hyperthermia was induced by placing the animals in a 39° C. incubator. On Day 1 (i.e., 24 hours after induction), animals were euthanized and bronchoalveolar lavage fluid (BALF) was collected. The BALF specimens were assessed for cytokine concentrations (using a multiplex bead-based assay), and protein levels, and neutrophil counts (by fluorescence-activated cell sorting (FACS)). Additionally, lungs were collected, fixed, stained with Masson's trichrome, and assessed histologically.

[2] = test system: murine air pouch model of inflammation; test: Murine air pouch model of inflammation, LPS induction (Example 2); type: in vivo, C57BL/6 mice
Procedure: This example provides the results of investigating DA to modulate immune response in a murine air pouch model of inflammation. […] What was measured was infiltrating cell counts with air pouch exudates, IL-6 levels in air pouch exudates by an ELISA assay (R&D Systems Cat. No. M6000B), and multiple cytokine analysis (Mouse 32Plex Kit MilliporeSigma Cat. No. MCYTMAG70PMX32BK).
Duarte et al., Current Protocols in Pharmacology, 5.6.1-5.6.8 Mar. 2012, describes “The subcutaneous air pouch is an in vivo model that can be used to study acute and chronic inflammation, the resolution of the inflammatory response, and the oxidative stress response. Injection of irritants into an air pouch in rats or mice induces an inflammatory response that can be quantified by the volume of exudate produced, the infiltration of cells, and the release of inflammatory mediators. The model presented in this unit has been extensively used to identify potential anti-inflammatory drugs.” It can be used to study localized inflammation without systemic effects. But in this case the drug was administered orally, by gavage BID.
Test administration was 5 ml/kg body weight BID dosing with 8 hour intervals. The air pouch was created in each test BL6 mouse by sc injection of 1.5 ml/mouse of sterile air on day 0 and 1.5 ml/mouse of sterile air on day 3. Compounds (or control distilled water) were administered BID on day −2. LPS (0.75 mg/animal in 1 ml endotoxin free PBS) was administered at hour 0 or one hour after dosing with test compounds. Plasma samples were collected at termination and exudates of the air pouches for all groups. Cell count analysis and IL-6 assays were conducted at the animal facility and plasma and exudate samples were sent out for cytokine analysis.

[3] = oral 92.4 mg/kg BID, vs vehicle
[4] = 96.4 mg/kg BID gavage pre-treatment, LPS, vs vehicle
[5] = higher dose of DA, air pouch model, LPS

## CC(=O)[O-].CC[N+](CC)(CC(=O)Nc1c(C)cccc1C)Cc1ccccc1 [DA, denatonium acetate]
[1]; 92.4 mg/kg PO group, within 24 h after LPS instillation, also one vehicle-dosed, not attributed to test article
  Mice found dead on Day 1: one
[1]; IP 3 mg/kg QD
  BALF neutrophil counts (by FACS assay): nominal decreases
  BALF protein concentrations: nominal (but nonsignificant) changes
  Number of 32 tested BALF cytokines significantly decreased compared to vehicle: 10
  Severity of lung pathology (by histological scoring): nominal decreases
[1]; IP 3 mg/kg QD, vs vehicle
  G-CSF concentration in BALF: significant decreases
  IL2 concentration in BALF: significant decreases
  IL-3 concentration in BALF: significant decreases
  IL-4 concentration in BALF: significant decreases
  IL-13 concentration in BALF: significant decreases
  IP-10 concentration in BALF: significant decreases
  M-CSF concentration in BALF: significant decreases
  MCP-1 concentration in BALF: significant decreases
  MIG concentration in BALF: significant decreases
  eotaxin concentration in BALF: significant decreases
[1]; ip, 3 mg/kg
  Tolerability of three days of repeat dosing: well-tolerated
[1]; po, 92.4 mg/kg
  Tolerability of three days of repeat dosing: well-tolerated
[1]; oral 92.4 mg/kg BID
  BALF neutrophil counts (by FACS assay): nominal decreases
  BALF protein concentrations: nominal (but nonsignificant) changes
  Number of 32 tested BALF cytokines significantly decreased compared to vehicle: 7
  Severity of lung pathology (by histological scoring): nominal decreases
[1]; [3]
  IL-2 concentration in BALF: significant decreases
  IL-3 concentration in BALF: significant decreases
  IL-10 concentration in BALF: significant decreases
  IL-13 concentration in BALF: significant decreases
  MCSF concentration in BALF: significant decreases
  MIG concentration in BALF: significant decreases
[2]; [4]
  IL-6 levels in air pouch exudates: significantly lower
  Infiltrating cell count in air pouch exudates: significantly lower
[2]; [5]
  IL-1b cytokine level: significant reduction
  IL-10 cytokine level: significant reduction
  IL-17 cytokine level: significant reduction
  TNF-1a cytokine level: significant reduction
[2]; pre-treatment by gavage BID, in a dose-dependent manner
  Infiltrating cell counts in air pouch exudates following LPS induction: decreased
